Results from patent US20180065917A1, “IMMUNE CHECKPOINT INHIBITORS, COMPOSITIONS AND METHODS THEREOF” (Polaris Pharmaceuticals, Inc., priority 2016, published 2018).
pIC50: −log10 of the molar value.

What was measured:
[1] = target: T1, PD-L1/PD-1 complex formation (Homo sapiens, UniProt Q9NZQ7); assay: PD-L1/PD-1 Interaction Assay (ELISA platform); assay type: binding; settings: human PD-1-Fc coated plates, PD-L1-Fc-biotin 0.1 μg/ml, compounds pre-incubated 2 hours
T1 construct: purchased BPS Bioscience
T1 sequence (Q9NZQ7 19-239 limits assumed, one chain of several): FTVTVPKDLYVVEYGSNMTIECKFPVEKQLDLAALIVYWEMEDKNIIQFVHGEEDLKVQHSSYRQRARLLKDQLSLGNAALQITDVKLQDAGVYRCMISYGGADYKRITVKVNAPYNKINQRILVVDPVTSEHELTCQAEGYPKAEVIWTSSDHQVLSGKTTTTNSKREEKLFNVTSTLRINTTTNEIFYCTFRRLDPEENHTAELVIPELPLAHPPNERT
Method: The ability of compounds to block PD-L1/PD-1 complex formation was evaluated using biochemical interaction assay based on the ELISA platform.
EIA/RIA high binding 96-well plates (Costar) were coated with human PD-1-Fc protein diluted in PBS to 0.5 μg/ml overnight at 4° C. The PD-1-Fc coated plates were washed in PBST and blocked in blocking buffer (2% BSA in PBST). Serially diluted compounds were pre-incubated with PD-L1-Fc-biotin (0.1 μg/ml final) for 2 hours on a shaker at room temperature. The PD-1-Fc coated plates were washed with PBST and solutions containing PD-L1 and compounds were added to the plates. The PD-1-Fc coated plates were incubated with PD-L1 and compound solution for 2 hours on a shaker at room temperature. After the incubation unbound PD-L1 was washed away with PBST and plates were incubated with the blocking buffer for 10 minutes. The bound PD-L1-Fc-biotin was detected with streptavidin-HRP and TMB substrate. The plates were read at OD450 nm in a plate reader (i3 from Molecular Devices) and percentages of inhibition of PD-L1/PD-1 complex formation were calculated.
PD-1-Fc protein was made at Polaris and PD-L1-Fc was purchased from BPS Bioscience.

| Structure (SMILES) | melting point | pIC50 [1] |
| --- | --- | --- |
| O=C(O)[C@@H]1CCCCN1Cc1ccc(OCc2cccc(-c3cccc(COc4ccc(CN5CCCC[C@H]5C(=O)O)cc4Br)c3)c2)c(Br)c1 [Example 8, (2S,2′S)-1,1′-(((([1,1′-Biphenyl]-3,3′-diylbis(methylene))bis(oxy))bis(3-bromo-4,1-phenylene))bis(methylene))bis(piperidine-2-carboxylic acid)] | 306 to 310 °C | 4.52 to 6.00 |
| Cc1cc(CN2CCCC[C@H]2C(=O)O)ccc1OCc1cccc(-c2cccc(COc3ccc(CN4CCCC[C@H]4C(=O)O)cc3C)c2C)c1C [Example 11, (2S,2′S)-1,1′-(((((2,2′-Dimethyl-[1,1′-biphenyl]-3,3′-diyl)bis(methylene))bis(oxy))bis(3-methyl-4,1-phenylene))bis(methylene))bis(piperidine-2-carboxylic acid)] | 191 to 195 °C | 7.00 to 7.96 |
| Cc1c(COc2ccc(CN3CCCC[C@H]3C(=O)O)cc2C(F)(F)F)cccc1-c1cccc(COc2ccc(CN3CCCC[C@H]3C(=O)O)cc2C(F)(F)F)c1C [Example 13, (2S,2′S)-1,1′-(((((2,2′-Dimethyl-[1,1′-biphenyl]-3,3′-diyl)bis(methylene))bis(oxy))bis(3-(trifluoromethyl)-4,1-phenylene))bis(methylene))bis(piperidine-2-carboxylic acid)] | 287 to 291 °C | 8.00 to 10.00 |
| Cc1c(COc2ccc(CN3CCCC[C@H]3C(=O)O)cc2F)cccc1-c1cccc(COc2ccc(CN3CCCC[C@H]3C(=O)O)cc2F)c1C [Example 19, (2S,2′S)-1,1′-(((((2,2′-Dimethyl-[1,1′-biphenyl]-3,3′-diyl)bis(methylene))bis(oxy))bis(3-fluoro-4,1-phenylene))bis(methylene))bis(piperidine-2-carboxylic acid)] | 205 to 209 °C | 6.00 to 6.96 |
| COc1cc(CN2CCCC[C@H]2C(=O)O)ccc1OCc1cccc(-c2cccc(COc3ccc(CN4CCCC[C@H]4C(=O)O)cc3OC)c2C)c1C [Example 20, (2S,2′S)-1,1′-(((((2,2′-Dimethyl-[1,1′-biphenyl]-3,3′-diyl)bis(methylene))bis(oxy))bis(3-methoxy-4,1-phenylene))bis(methylene))bis(piperidine-2-carboxylic acid)] | 192 to 196 °C | 4.52 to 6.00 |
| Cc1c(COc2ccc(CN3CCCC[C@H]3C(=O)O)cc2O)cccc1-c1cccc(COc2ccc(CN3CCCC[C@H]3C(=O)O)cc2O)c1C [Example 21, (2S,2′S)-1,1′-(((((2,2′-Dimethyl-[1,1′-biphenyl]-3,3′-diyl)bis(methylene))bis(oxy))bis(3-hydroxy-4,1-phenylene))bis(methylene))bis(piperidine-2-carboxylic acid)] | 143 to 147 °C | 4.52 to 6.00 |
| COc1cc(OCc2cccc(-c3cccc(COc4cc(OC)c(CNCCO)c(OC)c4)c3C)c2C)cc(OC)c1CNCCO [Example 22, 2,2′-((((((2,2′-Dimethyl-[1,1′-biphenyl]-3,3′-diyl)bis(methylene))bis(oxy))bis(2,6-dimethoxy-4,1-phenylene))bis(methylene))bis(azanediyl))bis(ethan-1-ol)] | 86 to 90 °C | 7.00 to 7.96 |

Now from value to compound:

| melting point | pIC50 [1] | Structure (SMILES) |
| --- | --- | --- |
| 184 to 188 °C | 8.00 to 10.00 | O=C(O)[C@@H]1CCCCN1Cc1ccc(OCc2cccc(-c3cccc(COc4ccc(CN5CCCC[C@H]5C(=O)O)cc4Br)c3Cl)c2Cl)c(Br)c1 [Example 9, (2S,2′S)-1,1′-(((((2,2′-Dichloro-[1,1′-biphenyl]-3,3′-diyl)bis(methylene))bis(oxy))bis(3-bromo-4,1-phenylene))bis(methylene))bis(piperidine-2-carboxylic acid)] |
| 204 to 208 °C | 6.00 to 6.96 | O=C(O)[C@@H]1CCCCN1Cc1ccc(OCc2cccc(-c3cccc(COc4ccc(CN5CCCC[C@H]5C(=O)O)cc4Br)c3F)c2F)c(Br)c1 [Example 10, (2S,2′S)-1,1′-(((((2,2′-Difluoro-[1,1′-biphenyl]-3,3′-diyl)bis(methylene))bis(oxy))bis(3-bromo-4,1-phenylene))bis(methylene))bis(piperidine-2-carboxylic acid)] |
| 184 to 188 °C | 7.00 to 7.96 | Cc1c(COc2ccc(CN3CCCC[C@H]3C(=O)O)cc2Cl)cccc1-c1cccc(COc2ccc(CN3CCCC[C@H]3C(=O)O)cc2Cl)c1C [Example 12, (2S,2′S)-1,1′-(((((2,2′-Dimethyl-[1,1′-biphenyl]-3,3′-diyl)bis(methylene))bis(oxy))bis(3-chloro-4,1-phenylene))bis(methylene))bis(piperidine-2-carboxylic acid)] |
